# Measured values reported in ChEMBL document CHEMBL1144095, “A new labdane diterpenoid from Renealmia alpinia collected in the Suriname rainforest” (1999).
# Tested on: Saccharomyces cerevisiae
# Experiment: Antifungal activity against Saccharomyces cerevisiae
# Type: functional
compound,measurement,value
C=C1CC[C@H]2C(C)(C)CCC[C@]2(C)[C@H]1CC1OC(O)C=C1C(=O)O (stereo partly specified),IC12,150 µg/mL
